Measured values from US6677466B1, “Method for stabilizing hydrogen peroxide” (DSM Fine Chemicals Austria NFG GmbH & Co KG, priority 1999, dated 2004).

Test: O2 evolution from RuO2.xH2O-catalysed decomposition of H2O2 with stabilizer
Assay type: physicochemical
Protocol: A 50% strength aqueous solution of H2O2 (304 mg; 4.46 mmol) was added to 454 mg (4.46 mmol) of methyl pyruvate and to 535 mg (4.46 mmol) of glyoxylic methyl ester methyl hemiacetal, respectively. In the case of methyl pyruvate, a marked evolution of heat was discovered during the addition. After one hour, the H2O2/α-keto ester mixture was mixed with 1 ml of solvent and added to a suspension of 2.5 mg of RuO2.xH2O catalyst (Aldrich) in 4 ml of solvent. The suspension was introduced into a 50 ml flask which was maintained at room temperature in a water bath.
As a comparison, a suspension of 2.5 mg of RuO2.xH2O catalyst (Aldrich) in 4 ml of solvent was combined with a 50% strength aqueous solution of H2O2 (304 mg; 4.46 mmol) and 1 ml of solvent without stabilizer.
The amount of oxygen which […] the decomposition of the hydrogen peroxide was determined as a function of time using a Brooks meter, which permitted measurement of the gas flow and of the total amount of evolved gas.
The amount of oxygen is defined here as % of the maximum amount to be calculated on the basis of stoichiometry.

For COC(=O)C(C)=O [methyl pyruvate], the “O2 evolution V(O2) (Vmax(O2)*100%)” value (solv. acetic acid, t 1 min) was 0%, the “O2 evolution V(O2) (Vmax(O2)*100%)” value (solv. acetic acid, t 2 min) was 0% and the “O2 evolution V(O2) (Vmax(O2)*100%)” value (solv. acetic acid, t 5 min) was 2%. For the same compound, the “O2 evolution V(O2) (Vmax(O2)*100%)” value (solv. acetic acid, t 10 min) was 4%, the “O2 evolution V(O2) (Vmax(O2)*100%)” value (solv. acetic acid, t 15 min) was 4% and the “O2 evolution V(O2) (Vmax(O2)*100%)” value (solv. acetic acid, t 20 min) was 4%. The “O2 evolution V(O2) (Vmax(O2)*100%)” value (solv. acetic acid, t 25 min) was 4%, the “O2 evolution V(O2) (Vmax(O2)*100%)” value (solv. acetic acid, t 30 min) was 4% and the “O2 evolution V(O2) (Vmax(O2)*100%)” value (solv. acetic acid, t 35 min) was 4%. The “O2 evolution V(O2) (Vmax(O2)*100%)” value (solv. acetic acid, t 40 min) was 4%, the “O2 evolution V(O2) (Vmax(O2)*100%)” value (solv. acetone, t 1 min) was 10% and the “O2 evolution V(O2) (Vmax(O2)*100%)” value (solv. acetone, t 2 min) was 20%. The “O2 evolution V(O2) (Vmax(O2)*100%)” value (solv. acetone, t 5 min) was 29%, the “O2 evolution V(O2) (Vmax(O2)*100%)” value (solv. acetone, t 10 min) was 29% and the “O2 evolution V(O2) (Vmax(O2)*100%)” value (solv. acetone, t 15 min) was 29%. The “O2 evolution V(O2) (Vmax(O2)*100%)” value (solv. acetone, t 20 min) was 29%, the “O2 evolution V(O2) (Vmax(O2)*100%)” value (solv. acetone, t 25 min) was 29% and the “O2 evolution V(O2) (Vmax(O2)*100%)” value (solv. acetone, t 30 min) was 29%. The “O2 evolution V(O2) (Vmax(O2)*100%)” value (solv. acetone, t 35 min) was 29%, the “O2 evolution V(O2) (Vmax(O2)*100%)” value (solv. acetone, t 40 min) was 29% and the “O2 evolution V(O2) (Vmax(O2)*100%)” value (solv. acetonitrile, t 1 min) was 9%. For the same compound, the “O2 evolution V(O2) (Vmax(O2)*100%)” value (solv. acetonitrile, t 2 min) was 18%, the “O2 evolution V(O2) (Vmax(O2)*100%)” value (solv. acetonitrile, t 5 min) was 30% and the “O2 evolution V(O2) (Vmax(O2)*100%)” value (solv. acetonitrile, t 10 min) was 40%. The “O2 evolution V(O2) (Vmax(O2)*100%)” value (solv. acetonitrile, t 15 min) was 47%, the “O2 evolution V(O2) (Vmax(O2)*100%)” value (solv. acetonitrile, t 20 min) was 51% and the “O2 evolution V(O2) (Vmax(O2)*100%)” value (solv. acetonitrile, t 25 min) was 53%. The “O2 evolution V(O2) (Vmax(O2)*100%)” value (solv. acetonitrile, t 30 min) was 53%, the “O2 evolution V(O2) (Vmax(O2)*100%)” value (solv. acetonitrile, t 35 min) was 53% and the “O2 evolution V(O2) (Vmax(O2)*100%)” value (solv. acetonitrile, t 40 min) was 53%. The “O2 evolution V(O2) (Vmax(O2)*100%)” value (solv. ethyl acetate, t 1 min) was 8%, the “O2 evolution V(O2) (Vmax(O2)*100%)” value (solv. ethyl acetate, t 2 min) was 12% and the “O2 evolution V(O2) (Vmax(O2)*100%)” value (solv. ethyl acetate, t 5 min) was 20%. The “O2 evolution V(O2) (Vmax(O2)*100%)” value (solv. ethyl acetate, t 10 min) was 29%, the “O2 evolution V(O2) (Vmax(O2)*100%)” value (solv. ethyl acetate, t 15 min) was 32% and the “O2 evolution V(O2) (Vmax(O2)*100%)” value (solv. ethyl acetate, t 20 min) was 37%. For the same compound, the “O2 evolution V(O2) (Vmax(O2)*100%)” value (solv. ethyl acetate, t 25 min) was 40%, the “O2 evolution V(O2) (Vmax(O2)*100%)” value (solv. ethyl acetate, t 30 min) was 42% and the “O2 evolution V(O2) (Vmax(O2)*100%)” value (solv. ethyl acetate, t 35 min) was 47%. The “O2 evolution V(O2) (Vmax(O2)*100%)” value (solv. ethyl acetate, t 40 min) was 50%, the “O2 evolution V(O2) (Vmax(O2)*100%)” value (solv. methanol, t 1 min) was 10% and the “O2 evolution V(O2) (Vmax(O2)*100%)” value (solv. methanol, t 2 min) was 19%. For the same compound, the “O2 evolution V(O2) (Vmax(O2)*100%)” value (solv. methanol, t 5 min) was 32%, the “O2 evolution V(O2) (Vmax(O2)*100%)” value (solv. methanol, t 10 min) was 43% and the “O2 evolution V(O2) (Vmax(O2)*100%)” value (solv. methanol, t 15 min) was 49%. The “O2 evolution V(O2) (Vmax(O2)*100%)” value (solv. methanol, t 20 min) was 52%, the “O2 evolution V(O2) (Vmax(O2)*100%)” value (solv. methanol, t 25 min) was 53% and the “O2 evolution V(O2) (Vmax(O2)*100%)” value (solv. methanol, t 30 min) was 53%. For the same compound, the “O2 evolution V(O2) (Vmax(O2)*100%)” value (solv. methanol, t 35 min) was 53%, the “O2 evolution V(O2) (Vmax(O2)*100%)” value (solv. methanol, t 40 min) was 53% and the “O2 evolution V(O2) (Vmax(O2)*100%)” value (solv. t-butanol, t 1 min) was 2%. The “O2 evolution V(O2) (Vmax(O2)*100%)” value (solv. t-butanol, t 2 min) was 5%, the “O2 evolution V(O2) (Vmax(O2)*100%)” value (solv. t-butanol, t 5 min) was 10% and the “O2 evolution V(O2) (Vmax(O2)*100%)” value (solv. t-butanol, t 10 min) was 18%. For the same compound, the “O2 evolution V(O2) (Vmax(O2)*100%)” value (solv. t-butanol, t 15 min) was 21%, the “O2 evolution V(O2) (Vmax(O2)*100%)” value (solv. t-butanol, t 20 min) was 23% and the “O2 evolution V(O2) (Vmax(O2)*100%)” value (solv. t-butanol, t 25 min) was 25%. For the same compound, the “O2 evolution V(O2) (Vmax(O2)*100%)” value (solv. t-butanol, t 30 min) was 25%, the “O2 evolution V(O2) (Vmax(O2)*100%)” value (solv. t-butanol, t 35 min) was 25% and the “O2 evolution V(O2) (Vmax(O2)*100%)” value (solv. t-butanol, t 40 min) was 25%. For the same compound, the “O2 evolution V(O2) (Vmax(O2)*100%)” value (solv. water, t 1 min) was 9%, the “O2 evolution V(O2) (Vmax(O2)*100%)” value (solv. water, t 2 min) was 17% and the “O2 evolution V(O2) (Vmax(O2)*100%)” value (solv. water, t 5 min) was 30%. The “O2 evolution V(O2) (Vmax(O2)*100%)” value (solv. water, t 10 min) was 40%, the “O2 evolution V(O2) (Vmax(O2)*100%)” value (solv. water, t 15 min) was 48% and the “O2 evolution V(O2) (Vmax(O2)*100%)” value (solv. water, t 20 min) was 51%. The “O2 evolution V(O2) (Vmax(O2)*100%)” value (solv. water, t 25 min) was 55%, the “O2 evolution V(O2) (Vmax(O2)*100%)” value (solv. water, t 30 min) was 55% and the “O2 evolution V(O2) (Vmax(O2)*100%)” value (solv. water, t 35 min) was 55%. For the same compound, the “O2 evolution V(O2) (Vmax(O2)*100%)” value (solv. water, t 40 min) was 55%.
